Reference: US11446394B2, “Lipid nanoparticle formulations comprising lipidated cationic peptide compounds for nucleic acid delivery” (NUTCRACKER THERAPEUTICS, INC., priority 2018, dated 2022)

Legend:
[1] = Dynamic light scattering of Fluc mRNA/peptoid formulations (particle size, PDI); type: physicochemical; conditions: Fluc mRNA/peptoid formulation, 5:1 mass ratio peptoid:cargo; for Size PDI: size polydispersity index by DLS; for Size (nm): volume average particle size/diameter by DLS
Procedure: (§1) To prepare nanoparticle formulations, the tertiary amino lipidated and/or PEGylated cationic peptide compound is mixed by pipetting with nucleic acid at a mass ratio between approximately 1:1 (peptide compound:cargo) and 20:1. Prior to formulation, tertiary amino lipidated and/or PEGylated cationic peptide compounds and cargo (such as nucleic acid) are diluted in ethanol and acidic buffer (PBS adjusted to pH 5.5 with 0.1 M HCl) respectively to a volume ratio of 1:3 and to target a final cargo concentration of approximately 0.05 mg/mL to 0.2 mg/mL. The exemplary amino lipidated cationic peptoids 1-36 described in Example 2 were combined with firefly luciferase (Fluc) mRNA to form nanoparticle compositions to be evaluated for therapeutic and/or prophylactic purposes in vitro or in vivo. The formulations were prepared according to the protocol of Example 3 and mixed by simple pipetting. The mRNA/peptoid formulation at a 5:1 mass ratio of peptoid:cargo were evaluated by dynamic light scattering (DLS) in order to determine the volume average particle size/diameter (nm) of the mRNA/peptoid complex and the size polydispersity index (PDI) within the formulation. The percentage of mRNA encapsulation for each formulation of the exemplary compounds were determined by fluorescence of the Qubit RNA HS (Invitrogen) dye before and after lysis of particles by Triton X-100.

[2] = mRNA encapsulation by Qubit RNA HS dye fluorescence before and after Triton X-100 lysis; type: physicochemical; conditions: percentage of mRNA encapsulation; Fluc mRNA/peptoid formulation, 5:1 mass ratio peptoid:cargo
Procedure: as §1

HeLa cells = assay: In vitro firefly luciferase (Fluc) expression after treatment with Fluc mRNA/amino lipidated peptoid formulations; type: cell-based; conditions: peptoid:Fluc mRNA 5:1 w/w, 100 ng/well; for Luciferase Expression (RLU) 6 h: 6 hours of treatment; for Luciferase Expression (RLU) 24 h: 24 hours of treatment
Procedure: The efficacy of mRNA/amino lipidated peptoid formulations was evaluated in vitro based on their ability to deliver the firefly luciferase (Fluc) reporter gene to cultured cells. The amino lipidated cationic peptoids 1-36 of Example 2 were individually combined with Fluc mRNA at a 5:1 w/w ratio, and the resulting particles were added to cultured HeLa cells at a dose of 100 ng/well (in 100 μL total volume). The resulting luciferase expression (RLU) was measured by a luminescence plate reader after 6 hours and 24 hours of treatment.

| SMILES | Size PDI [1] | Size (nm) [1] [nm] | % Encapsulation [2] [%] | Luciferase Expression (RLU) 6 h (HeLa cells) [RLU] | Luciferase Expression (RLU) 24 h (HeLa cells) [RLU] |
| --- | --- | --- | --- | --- | --- |
| CCCCCCCCCCN(CC(N)=O)C(=O)CN(CCCCCCCCCC)C(=O)CN(CCCCCCCCCC)C(=O)CN(CCCCCCCCCC)C(=O)CN(CCc1ccccc1)C(=O)CN(CCc1ccccc1)C(=O)CN(CCN)C(=O)CN(CCc1ccccc1)C(=O)CN(CCc1ccccc1)C(=O)CN(CCN)C(=O)CN(CCc1ccccc1)C(=O)CN(CCc1ccccc1)C(=O)CNCCN [Compound 8] | 0.077 | 234 | 82.5 | 1.10E+04 | 1.33E+04 |
| CCCCCCCCCCN(CC(N)=O)C(=O)CN(CCCCCCCCCC)C(=O)CN(CCc1ccccc1)C(=O)CN(CCc1ccccc1)C(=O)CN(CCN)C(=O)CN(CCc1ccccc1)C(=O)CN(CCc1ccccc1)C(=O)CN(CCN)C(=O)CN(CCc1ccccc1)C(=O)CN(CCc1ccccc1)C(=O)CN(CCN)C(=O)CN(CCc1ccccc1)C(=O)CN(CCc1ccccc1)C(=O)CN(CCN)C(=O)CN(CCc1ccccc1)C(=O)CN(CCc1ccccc1)C(=O)CNCCN [Compound 12] | 0.211 | 224.4 | 86.5 | 4.04E+02 | 5.71E+02 |
| CCCCCCCCCCN(CC(N)=O)C(=O)CN(CCCCCCCCCC)C(=O)CN(CCCCCCCCCC)C(=O)CN(CCCCCCCCCC)C(=O)CN(CCCCCCCCCC)C(=O)CN(CCc1ccccc1)C(=O)CN(CCc1ccccc1)C(=O)CN(CCN)C(=O)CN(CCc1ccccc1)C(=O)CN(CCc1ccccc1)C(=O)CN(CCN)C(=O)CN(CCc1ccccc1)C(=O)CN(CCc1ccccc1)C(=O)CNCCN [Compound 19] | 0.158 | 276 | 70.9 | 8.20E+03 | 1.09E+04 |
| CCCCCCCCCCN(CC(N)=O)C(=O)CN(CCCCCCCCCC)C(=O)CN(CCCCCCCCCC)C(=O)CN(CCCCCCCCCC)C(=O)CN(CCCCCCCCCC)C(=O)CN(CCc1ccccc1)C(=O)CN(CCc1ccccc1)C(=O)CN(CCN)C(=O)CN(CCc1ccccc1)C(=O)CN(CCc1ccccc1)C(=O)CN(CCN)C(=O)CN(CCc1ccccc1)C(=O)CN(CCc1ccccc1)C(=O)CN(CCN)C(=O)CN(CCc1ccccc1)C(=O)CN(CCc1ccccc1)C(=O)CNCCN [Compound 21] | 0.174 | 386.5 | 65.4 | 3.45E+03 | 1.24E+04 |
| CCCCCCCCCCN(CC(=O)N(CC(=O)N(CCCCCCCCCC)CC(=O)N(CC(N)=O)CC(CC)CCCC)CC(CC)CCCC)C(=O)CN(CCc1ccccc1)C(=O)CN(CCc1ccccc1)C(=O)CN(CCN)C(=O)CN(CCc1ccccc1)C(=O)CN(CCc1ccccc1)C(=O)CN(CCN)C(=O)CN(CCc1ccccc1)C(=O)CN(CCc1ccccc1)C(=O)CNCCN (stereo not shown) [Compound 24] | 0.135 | 161 | 87.0 | 1.79E+04 | 3.43E+04 |
| CCCCCCCCCCN(CC(N)=O)C(=O)CN(CCCCCCCCCC)C(=O)CN(CCCCCCCCCC)C(=O)CN(CCCCCCCCCC)C(=O)CN(CCc1ccccc1)C(=O)CN(CCc1ccccc1)C(=O)CN(CCCN)C(=O)CN(CCc1ccccc1)C(=O)CN(CCc1ccccc1)C(=O)CN(CCCN)C(=O)CN(CCc1ccccc1)C(=O)CN(CCc1ccccc1)C(=O)CN(CCCN)C(=O)CN(CCc1ccccc1)C(=O)CN(CCc1ccccc1)C(=O)CNCCCN [Compound 29] | 0.237 | 343.4 | 24.8 | 1.64E+03 | 6.72E+03 |
| CCCCCCCCCCN(CC(N)=O)C(=O)CN(CCCCCCCCCC)C(=O)CN(CCCCCCCCCC)C(=O)CN(CCCCCCCCCC)C(=O)CN(CCc1ccccc1)C(=O)CN(CCc1ccccc1)C(=O)CN(CC1CCCN1)C(=O)CN(CCc1ccccc1)C(=O)CN(CCc1ccccc1)C(=O)CN(CC1CCCN1)C(=O)CN(CCc1ccccc1)C(=O)CN(CCc1ccccc1)C(=O)CNCC1CCCN1 (stereo not shown) [Compound 34] | 0.295 | 348.4 | 58.0 | 1.95E+03 | 2.71E+03 |
| CCCCCCCCCCN(CC(N)=O)C(=O)CN(CCCCCCCCCC)C(=O)CN(CCCCCCCCCC)C(=O)CN(CCCCCCCCCC)C(=O)CN(CCc1ccccc1)C(=O)CN(CCc1ccccc1)C(=O)CN(CC1CCCN1)C(=O)CN(CCc1ccccc1)C(=O)CN(CCc1ccccc1)C(=O)CN(CC1CCCN1)C(=O)CN(CCc1ccccc1)C(=O)CN(CCc1ccccc1)C(=O)CN(CC1CCCN1)C(=O)CN(CCc1ccccc1)C(=O)CN(CCc1ccccc1)C(=O)CNCC1CCCN1 (stereo not shown) [Compound 35] | 0.486 | 359.8 | 38.0 | 1.22E+03 | 1.60E+03 |
